{
  "source": "patent US20250025442A1",
  "about": "“BCAA-Lowering Compounds for Prevention and/or Treatment of Alzheimer's Disease and Related Disorders” (Texas Tech University System, priority 2020, published 2025)",
  "key": {"BCKDH kinase": {"test_system": "BCKDH kinase", "settings": "cited from earlier work"}, "plasma BCAAs": {"test_system": "plasma BCAAs", "settings": "mice; cited from earlier work"}, "[1]": {"settings": "in hepatocytes; cited from earlier work"}, "[2]": {"settings": "CD-1 mice, in vivo pharmacokinetics study; cited from earlier work"}, "5xFAD mice": {"test_system": "5xFAD mice", "experiment": "BT2 daily ip injection for one month in 5xFAD mice", "assay_type": "in vivo", "from_the_text": "These transgenic mice develop amyloid plaques and neuroinflammation at as early as 1.5-2 months of age^7, thus allowing the inventors to investigate the role of BCAAs in AD-related brain pathology when they are young. […] Next, the inventors examined amyloid and Tau pathology in the cortex."}},
  "data": [
    {"compound": "(S)-α-chloro-phenylpropionic acid [(S)-CPP]", "values": [
      {"measurement": "inhibit BCKDH kinase", "setting": "BCKDH kinase", "value": "effectively inhibit"},
      {"measurement": "plasma BCAAs", "setting": "plasma BCAAs", "value": "lowering plasma BCAAs"},
      {"measurement": "Half-life", "setting": "[1]", "value": "~7", "unit": "h"},
      {"measurement": "clearance rate", "setting": "[2]", "value": 0.113, "unit": "mL/min"}
    ]},
    {"compound": "O=C(O)c1sc2cc(Cl)ccc2c1Cl", "note": "[BT2, 3,6-dichlorobenzo[b]thiophene-2-carboxylic acid]", "values": [
      {"measurement": "increase of tyrosine hydroxylase (TH) protein level", "setting": "5xFAD mice; 5xFAD mice, p=0.07", "value": "~400", "unit": "%"},
      {"measurement": "blood glucose", "setting": "5xFAD mice; BT2-treated vs vehicle-treated 5xFAD mice", "value": "markedly decrease"},
      {"measurement": "Aβ-42 level", "setting": "5xFAD mice; cortex, 5xFAD mice", "value": "completely rescued"},
      {"measurement": "elevated Aβ-degrading enzyme IDE", "setting": "5xFAD mice; cortex, 5xFAD mice", "value": 70, "unit": "%"},
      {"measurement": "increase of DA", "setting": "5xFAD mice; cortex, BT2-treated 5xFAD mice", "value": 180, "unit": "%"},
      {"measurement": "increase of DOPAC", "setting": "5xFAD mice; cortex, BT2-treated 5xFAD mice", "value": 300, "unit": "%"},
      {"measurement": "GSK3β", "setting": "5xFAD mice; cortex, after BT2 treatment", "value": "significantly reduced"},
      {"measurement": "BACE1 (β-secretase)", "setting": "5xFAD mice; hippocampus, 5xFAD mice", "value": "markedly lowered"},
      {"measurement": "NE level", "setting": "5xFAD mice; hippocampus, 5xFAD mice", "value": "fully restored"},
      {"measurement": "mRNA of NF-κB (inflammation)", "setting": "5xFAD mice; hippocampus, 5xFAD mice", "value": "decreased"},
      {"measurement": "mRNA of PERK (ER stress)", "setting": "5xFAD mice; hippocampus, 5xFAD mice", "value": "decreased"},
      {"measurement": "higher 5-HT", "setting": "5xFAD mice; hippocampus, after BT2 treatment, p<0.05", "value": 50, "unit": "%"},
      {"measurement": "higher DA", "setting": "5xFAD mice; hippocampus, after BT2 treatment, p=0.08", "value": 40, "unit": "%"},
      {"measurement": "inhibit BCKDH kinase", "setting": "BCKDH kinase", "value": "effectively inhibit"},
      {"measurement": "plasma BCAAs", "setting": "plasma BCAAs", "value": "lowering plasma BCAAs"}
    ]}
  ]
}
